Test system: HLA-DR
Format: cell-based, human

Sequence: RGILKRNSSSSSTDS [5-HUMAN-B, reference compound]
- % Inhibition by HLA-DR blocking Ab: 100%

Reference: patent US20180179256A1 (priority 2015, published 2018)
